From patent US20230312510A1, “COMPOUNDS AND METHODS FOR TREATING NEURODEGENERATIVE DISEASES” (The McLean Hospital Corporation, priority 2020, published 2023)

Assays:
[1] = tested on: HeLa cells; test: Starvation-induced autophagy in HeLa cells (Western blot of LC3B and p62); assay type: cell-based; conditions: EBSS 0-4 hrs, BafA1 10 nM, CQ 20 μM, SPV-94 1 μM
Method: To limit basal autophagy, cells were incubated in fresh growth medium for 1 hr before starvation. Samples were analyzed by Western blot using autophagic flux markers LC3B and p62 (A) and its expression levels were quantified (10B and 10C).

[2] = tested on: MN9D cells; test: Protection against MPP+-induced toxicity in MN9D cells (MTT reduction, LDH release)
Method: Cell viability and cytotoxicity were measured by MTT (3-(4,5-dimethylthiazol-2-yl)-2,5-diphenyltetrazolium bromide) reduction assay.
Cell viability and cytotoxicity were measured by lactate dehydrogenase (LDH) release assay.

[3] = tested on: BV2 cells; test: LPS-induced TNFα mRNA expression in BV2 cells (real-time PCR); assay type: cell-based, mouse; conditions: LPS 1 μg/ml, compound 1 μM
Description: (§1) Besides the role as an activator of DAergic genes, Nurr1 is known as a repressor of inflammatory genes in astrocytes and microglia (See Saijo et al., Cell 2009, 137, 47-59).

[4] = tested on: N27-A cells; test: Starvation-induced autophagy and Nurr1 expression in N27-A cells with or without MPP+; assay type: cell-based; conditions: CQ 20 μM, SPV-94 1 μM
Method: LC3B, p62 and Nurr1 expression levels determined by Western blot (D) were quantified.
Next, autophagy regulation was assessed in a dopaminergic cell line N27-A in the absence or presence of MPP^+ (1 mM). […] Furthermore, it was observed that MPP disrupted autophagy showing accumulated LC3B-II and remained p62 at the late-stage, which corresponds to the previous studies (See Lim et al., Autophagy 2011, 7, 51-60; Hung et al., PLoS ONE 2014, 9, e91074; Park et al., J Biol Chem 2016, 291, 3531-3540).
Referring to FIGS. 10D-10G, N27-A cells were treated with vehicle or MPP+ (1 mM) for 24 hrs and then changed with fresh growth medium with or without MPP+ 1 hr before starvation. […] To induce autophagy, N27-A cells were incubated in EBSS for 0-4 hrs, in the absence or presence of MPP+. Samples were analyzed by Western blot using autophagic flux markers LC3B and p62 (D) and its expression levels were quantified (10E and 10F). […] (10G) Nurr1 expression level changes were also analyzed and quantified.

[5] = target: T1, Nurr1-LBD (Homo sapiens, UniProt P43354); test: Radioligand competition binding assay using [3H]-CQ
T1 sequence (P43354 360-595 limits assumed): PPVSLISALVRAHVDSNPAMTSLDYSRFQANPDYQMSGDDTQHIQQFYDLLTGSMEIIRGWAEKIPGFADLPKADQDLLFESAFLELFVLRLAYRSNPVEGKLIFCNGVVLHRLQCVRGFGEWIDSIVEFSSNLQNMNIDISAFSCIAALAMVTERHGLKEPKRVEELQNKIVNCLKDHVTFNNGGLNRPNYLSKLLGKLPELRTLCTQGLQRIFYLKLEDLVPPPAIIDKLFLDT

[6] = tested on: Nurr1-LBD and full-length Nurr1; test: Luciferase activity assay (Nurr1 transactivation) in MN9D cells; assay type: cell-based, murine
[7] = tested on: mouse embryonic ventral mesencephalic (mVM) primary neurons; test: Dopaminergic gene expression in mVM primary neurons with or without 6-OHDA; assay type: cell-based
Method: FIGS. 8A-8D show dopaminergic (DAergic) gene expressions in the absence or presence of 6-OHDA (20 μM) in mouse embryonic ventral mesencephalic (mVM) primary neurons derived from embryonic day 12.5 (E12.5).

[8] = target: T1, Nurr1-LBD; test: Luciferase activity assay (p4xNL3-Luc reporter) with Nurr1-LBD in SK-N-BE(2)C cells; assay type: cell-based; design: expressed in transfected cells; host or cells: SK-N-BE(2)C human neuroblastoma cells; conditions: SK-N-BE(2)C cells; read-out: EC50, transcriptional activity of Nurr1-LBD
[9] = tested on: Nurr1-LBD and full-length Nurr1; test: Luciferase activity assay (Nurr1 transactivation) in N27-A cells; assay type: cell-based, murine
[10] = tested on: mouse bone marrow-derived primary macrophages (mBMMs); test: LPS- or poly(I:C)-induced pro-inflammatory gene expression in mBMMs; assay type: cell-based; conditions: CQ 10 μM, SPV-94 1 μM
Description: as §1

[11] = target: T2, full-length Nurr1 (Homo sapiens, UniProt P43354); test: Luciferase activity assay (p4xNL3-Luc reporter) with full-length Nurr1 in SK-N-BE(2)C cells; assay type: cell-based; conditions: SK-N-BE(2)C cells; read-out: EC50, transcriptional activity of full-length Nurr1
T2 construct: expressed in transfected cells; host or cells: SK-N-BE(2)C human neuroblastoma cells
T2 sequence (P43354 whole entry): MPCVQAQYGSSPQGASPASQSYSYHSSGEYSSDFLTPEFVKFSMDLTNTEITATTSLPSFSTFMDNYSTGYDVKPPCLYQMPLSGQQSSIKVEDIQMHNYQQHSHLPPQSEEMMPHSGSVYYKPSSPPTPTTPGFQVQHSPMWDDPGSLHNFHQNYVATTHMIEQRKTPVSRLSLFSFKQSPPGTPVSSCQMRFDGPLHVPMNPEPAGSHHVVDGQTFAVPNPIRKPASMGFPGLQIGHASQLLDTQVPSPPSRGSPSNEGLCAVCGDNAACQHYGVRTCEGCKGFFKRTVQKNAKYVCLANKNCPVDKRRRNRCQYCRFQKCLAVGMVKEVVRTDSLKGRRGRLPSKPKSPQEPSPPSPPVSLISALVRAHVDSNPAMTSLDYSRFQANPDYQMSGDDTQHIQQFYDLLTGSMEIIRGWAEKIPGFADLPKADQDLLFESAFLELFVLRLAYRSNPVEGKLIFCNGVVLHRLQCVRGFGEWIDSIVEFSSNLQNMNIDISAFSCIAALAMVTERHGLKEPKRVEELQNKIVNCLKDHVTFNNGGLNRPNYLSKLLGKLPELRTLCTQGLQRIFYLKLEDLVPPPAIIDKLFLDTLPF

[12] = tested on: MPTP-induced PD model mice; test: Sub-chronic MPTP-induced mice model of PD; conditions: for body weight recovery / cylinder test, rearing numbers, sub-chronic treatment / pole test, time to traverse, sub-chronic treatment / rotarod latency to fall, sub-chronic treatment: L-DOPA 50, CQ 40, SPV-94 5 mg/kg/day; for TH+ DAergic neurons (counting and densitometry): STR, SNpc and OB; for dyskinesia in the abnormal involuntary movements (AIMs) test: chronic administration; for olfactory discrimination test (olfaction), chronic treatment: day 14; for rotarod latency to fall, chronic treatment: day 15
Method: Sub-chronic MPTP regimen (30 mg/kg/day, 5 days) was introduced.

[13] = tested on: N27-A cells; test: Protection against MPP+-induced toxicity in N27-A cells (MTT, LDH); conditions: 1 mM MPP+
[14] = Pharmacokinetic study after single oral administration; assay type: in vivo, Rat; conditions: Sprague-Dawley (SD), plasma, 20 mg/kg; for AUC(0-t): rat, Male SD Rats, PO; for concentration at 0.083 h / concentration at 0.25 h / concentration at 0.5 h / concentration at 1 h / concentration at 2 h / concentration at 4 h / concentration at 8 h / concentration at 24 h: male, Rat, oral, read-out: Plasma Conc.
Description: The objective of this study was to characterize the pharmacokinetics (PK) of compound of Formula (II) in Male SD Rats after single intravenous (IV) and oral (PO) administration. […] Following PO administration with comparative example 2: […]

[15] = tested on: CD-1 mice; test: Escalating dose maximum tolerated dose study; assay type: in vivo; conditions: oral; for cage side observation, clinical signs: escalating dose from 5 mg/kg
Method: The objective of this study was to evaluate the escalating dose maximum tolerated dose study of compound of Formula (II) and comparative example
in CD-1 mice. Animals were monitored on a daily basis with body weights and clinical signs, and any abnormal observation findings were recorded.

CO/C1=C\C(C)=C\[C@@H](C)[C@@H](O)[C@@H](C)C/C(C)=C/C=C/[C@H](OC)[C@@H]([C@@H](C)[C@@H](O)[C@H](C)[C@@]2(O)C[C@@H](O)[C@H](C)[C@@H](C(C)C)O2)OC1=O [BafA1, bafilomycin A1]
autophagy process (LC3B, p62) [1]: induced autophagy initiation but inhibited autophagy process termination

CCN(CC)CCCC(C)Nc1ccnc2cc(Cl)ccc12 (centres unmarked) [CQ, chloroquine]
cytotoxicity, LDH release assay ([2]; 500 μM MPP+): reduced cytotoxicity
protective effect against MPP+-induced toxicity under Nurr1 overexpression (OE) ([2]; CQ 100 μM, SPV-94 1 μM, vs Mock): potentiated protective effects
suppression of TNFα expression compared to LPS only [3]: 35.53%
basal Nurr1 expression level compared to VEH [4]: significantly higher
Ki [5]: 0.0284 µM
IC50 ([5]; 1,000 nM [3H]-CQ, 0.2 μM Nurr1-LBD, estimated, read-out: half maximal inhibitory concentration (IC50), competition with [3H]-CQ for binding to Nurr1-LBD): 1 µM
transcriptional activities of Nurr1-LBD and full-length Nurr1 [6]: enhanced transcriptional activities
DAergic gene expressions downregulated by 6-OHDA toxicity ([7]; 6-OHDA 20 μM, CQ 20 μM, SPV-94 0.5 μM): significant recovery of downregulated DAergic gene expressions
mRNA expression levels of DAergic genes (TH, DAT, AADC, VMAT2, c-Ret, Pitx3) ([7]; CQ 20 μM, SPV-94 0.5 μM, vs vehicle): significantly upregulated mRNA expression levels of DAergic genes
effects on DAergic gene expression in Nurr1 knockdown condition ([7]; Nurr1 KD): disappeared
EC50 [8]: 50 µM
transcriptional activities of Nurr1-LBD and full-length Nurr1 [9]: enhanced transcriptional activities
LPS- or poly(I:C)-induced pro-inflammatory gene expressions (TNFα, iNOS, IL-1β, IL-6) [10]: significantly suppressed LPS- or poly(I:C)-induced pro-inflammatory gene expressions
autophagy process (LC3B, p62) [1]: induced autophagy initiation but inhibited autophagy process termination
EC50 [11]: 50 µM
body weight recovery [12]: regained body weight after day 8
cylinder test, rearing numbers, sub-chronic treatment [12]: recovered rearing numbers in the cylinder test
pole test, time to traverse, sub-chronic treatment [12]: reduced time to traverse on a pole
rotarod latency to fall, sub-chronic treatment [12]: significantly improved motor deficits on the rotarod latency to fall
TH+ DAergic neurons (counting and densitometry) [12]: significantly restored DAergic neurons
dyskinesia in the abnormal involuntary movements (AIMs) test [12]: did not trigger dyskinesia
olfactory discrimination test (olfaction), chronic treatment [12]: significantly recovered olfaction
rotarod latency to fall, chronic treatment [12]: improved latency to fall on the rotarod on day 15
cytotoxicity, LDH assay [13]: reduced cytotoxicity in LDH assay

Clc1ccc2c(NCCN3CCN(c4ccnc(-n5ccnc5)n4)CC3)ccnc2c1 [Formula (II)]
AUC(0-t) [14]: 7340 ng·h/mL
concentration at 0.083 h [14]: 10.7 ng/mL
concentration at 0.25 h [14]: 118 ng/mL
concentration at 0.5 h [14]: 559 ng/mL
concentration at 1 h [14]: 1180 ng/mL
concentration at 2 h [14]: 1020 ng/mL
concentration at 4 h [14]: 953 ng/mL
concentration at 8 h [14]: 294 ng/mL
concentration at 24 h [14]: 16.8 ng/mL
cage side observation, clinical signs ([15]; CD-1 mice): no abnormalities were observed

N[C@@H](Cc1ccc(O)c(O)c1)C(=O)O [L-DOPA, L-3,4-dihydroxyphenylalanine]
olfactory discrimination test (olfaction), sub-acute stage [12]: failed to restore olfaction
body weight recovery [12]: regained body weight after day 8
cylinder test, rearing numbers, sub-chronic treatment [12]: recovered rearing numbers in the cylinder test
pole test, time to traverse, sub-chronic treatment [12]: reduced time to traverse on a pole
rotarod latency to fall, sub-chronic treatment [12]: significantly improved motor deficits on the rotarod latency to fall
Nurr1-immunoreactive cells ([12]; SNpc): failed to protect Nurr1 expressions
Iba-1+ microglia numbers ([12]; STR and SNpc): failed to suppress microglial activation
TH+ DAergic neurons (counting and densitometry) [12]: did not show protective effect
dyskinesia in the abnormal involuntary movements (AIMs) test [12]: developed dyskinesia
olfactory discrimination test (olfaction), chronic treatment [12]: could not recover olfaction even with chronic treatment
rotarod latency to fall, chronic treatment [12]: improved latency to fall on the rotarod on day 15
velocity during olfactory discrimination ([12]; sub-acute stage): hyperactivity indicated as increased velocity

Cc1cc(NCCCNc2ccnc3cc(Cl)ccc23)nc(N2CCN(C)CC2)n1 [comp. ex. 2]
AUC(0-t) [14]: 250 ng·h/mL
concentration at 0.083 h [14]: 5.15 ng/mL
concentration at 0.25 h [14]: 6.68 ng/mL
concentration at 0.5 h [14]: 9.91 ng/mL
concentration at 1 h [14]: 13.9 ng/mL
concentration at 2 h [14]: 14.9 ng/mL
concentration at 4 h [14]: 12 ng/mL
concentration at 8 h [14]: 16.5 ng/mL
concentration at 24 h [14]: 5.92 ng/mL

Cc1cc(NCCCNc2ccnc3cc(Cl)ccc23)nc(N2CCCC2)n1 [comp. ex. 3]
AUC(0-t) [14]: 271 ng·h/mL
concentration at 0.083 h [14]: 7.71 ng/mL
concentration at 0.25 h [14]: 16 ng/mL
concentration at 0.5 h [14]: 16.6 ng/mL
concentration at 1 h [14]: 19.4 ng/mL
concentration at 2 h [14]: 23.3 ng/mL
concentration at 4 h [14]: 19.5 ng/mL
concentration at 8 h [14]: 14.5 ng/mL
concentration at 24 h [14]: 3.53 ng/mL

Cc1cc(NCCCNc2ccnc3cc(Cl)ccc23)nc(N2CCCCC2)n1 [comparative example]
tolerability at 40 mg/kg ([15]; CD-1 male mice, 40 mg/kg): cannot be tolerated well
clinical signs and outcome at 40 mg/kg ([15]; CD-1 mice, 40 mg/kg): prone, slightly low temperature and twitched to death on the fourth dosing day
cage side observation, clinical signs ([15]; CD-1 mice): weight loss, roach back, rough coat, low temperature, low activity, tremble or/and dying
